Results from patent publication US11339130B1 (Blade Therapeutics, Inc., priority 2016, dated 2022).
Where two headings read alike, the source gives them in different places.

What was measured:
[1] = system: Calpain activity in SH-SY5Y cells; assay: SH-SY5Y + AMC fluorescence assay (Suc-LLVY-AMC substrate); format: cell-based
[2] = system: Calpain activity in SH-SY5Y cells (SBDP-150); assay: SH-SY5Y Spectrin western blot assay (SBDP-150 breakdown product, A23187-induced); format: cell-based; settings: Homo sapiens, read-out: SH-SY5Y Spectrin IC50
Human Calpain 9/NS1 = biological target: T1, Human Calpain 9/NS1 (Homo sapiens, UniProt O14815); assay: Calpain inhibition continuous fluorescence (FRET) assay, Human Calpain 9/NS1; format: biochemical; settings: Column C; read-out: Human Calpain 9/NS1 IC50
T1 sequence (O14815 1-690): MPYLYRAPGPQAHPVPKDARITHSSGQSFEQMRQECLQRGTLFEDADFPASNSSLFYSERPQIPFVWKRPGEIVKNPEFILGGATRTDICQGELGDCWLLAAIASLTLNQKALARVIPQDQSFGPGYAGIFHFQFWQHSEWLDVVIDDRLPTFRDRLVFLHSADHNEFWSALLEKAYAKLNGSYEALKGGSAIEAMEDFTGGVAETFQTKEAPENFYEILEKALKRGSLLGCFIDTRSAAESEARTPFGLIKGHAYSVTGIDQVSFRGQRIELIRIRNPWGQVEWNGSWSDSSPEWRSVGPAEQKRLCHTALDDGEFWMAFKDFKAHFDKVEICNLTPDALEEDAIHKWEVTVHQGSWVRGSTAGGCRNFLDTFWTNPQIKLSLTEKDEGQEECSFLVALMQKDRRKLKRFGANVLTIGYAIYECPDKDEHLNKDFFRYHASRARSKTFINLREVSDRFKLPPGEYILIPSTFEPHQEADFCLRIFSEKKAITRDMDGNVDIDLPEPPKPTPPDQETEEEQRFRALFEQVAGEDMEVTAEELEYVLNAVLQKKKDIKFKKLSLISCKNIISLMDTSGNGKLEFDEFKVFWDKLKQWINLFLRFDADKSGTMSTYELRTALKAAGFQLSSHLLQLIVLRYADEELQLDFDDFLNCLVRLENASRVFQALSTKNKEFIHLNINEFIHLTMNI
T1 sequence (P04632 1-268 partner): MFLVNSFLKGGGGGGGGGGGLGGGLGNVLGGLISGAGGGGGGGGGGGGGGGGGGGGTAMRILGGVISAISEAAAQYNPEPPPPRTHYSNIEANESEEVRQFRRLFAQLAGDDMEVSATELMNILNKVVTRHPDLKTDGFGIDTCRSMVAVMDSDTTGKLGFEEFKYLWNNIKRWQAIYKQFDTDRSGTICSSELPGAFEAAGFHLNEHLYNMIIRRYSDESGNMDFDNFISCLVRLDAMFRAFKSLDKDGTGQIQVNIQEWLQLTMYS
Method in brief: (§1)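 Continuous FRET read (ex 490/em 520 nm, 10 min) of calpain 1, 2 or 9 cleaving an internally quenched 5-FAM peptide, triggered by substrate with CaCl2 after enzyme–inhibitor incubation at ambient 25 °C, pH 7.5 Tris/NaCl/DTT buffer. IC50 from initial rates (1-5 min) via 4-parameter fit.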

Human Calpain 1/NS1 = biological target: T2, Human Calpain 1/NS1 (Homo sapiens, UniProt P07384); assay: Calpain inhibition continuous fluorescence (FRET) assay, Human Calpain 1/NS1; format: biochemical; settings: Column A; read-out: Human Calpain 1/NS1 IC50
T2 sequence (P07384 1-714): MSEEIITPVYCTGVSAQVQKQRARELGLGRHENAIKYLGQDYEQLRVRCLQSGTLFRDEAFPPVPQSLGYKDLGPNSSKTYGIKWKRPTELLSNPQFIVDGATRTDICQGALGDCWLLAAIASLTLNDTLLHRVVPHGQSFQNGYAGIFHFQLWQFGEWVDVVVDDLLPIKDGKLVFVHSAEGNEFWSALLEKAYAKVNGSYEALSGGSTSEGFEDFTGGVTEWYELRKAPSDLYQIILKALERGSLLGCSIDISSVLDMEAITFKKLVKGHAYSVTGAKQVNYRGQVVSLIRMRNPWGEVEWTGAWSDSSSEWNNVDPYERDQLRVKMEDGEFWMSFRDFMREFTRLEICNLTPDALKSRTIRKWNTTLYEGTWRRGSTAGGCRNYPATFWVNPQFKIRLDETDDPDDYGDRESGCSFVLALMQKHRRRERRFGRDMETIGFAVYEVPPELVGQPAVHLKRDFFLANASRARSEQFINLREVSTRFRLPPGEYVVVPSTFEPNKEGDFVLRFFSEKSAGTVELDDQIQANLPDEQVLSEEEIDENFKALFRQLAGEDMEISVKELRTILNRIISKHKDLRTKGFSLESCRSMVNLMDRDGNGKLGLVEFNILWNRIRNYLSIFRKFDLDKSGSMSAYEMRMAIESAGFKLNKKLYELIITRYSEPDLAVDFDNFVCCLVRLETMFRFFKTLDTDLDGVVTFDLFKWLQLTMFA
T2 sequence (P04632 1-268 partner): T1 sequence (P04632 1-268 partner)
Method in brief: as §1

Human Calpain 2/NS1 = biological target: T3, Human Calpain 2/NS1 (Homo sapiens, UniProt P17655); assay: Calpain inhibition continuous fluorescence (FRET) assay, Human Calpain 2/NS1; format: biochemical; settings: Column B; read-out: Human Calpain 2/NS1 IC50
T3 sequence (P17655 1-700): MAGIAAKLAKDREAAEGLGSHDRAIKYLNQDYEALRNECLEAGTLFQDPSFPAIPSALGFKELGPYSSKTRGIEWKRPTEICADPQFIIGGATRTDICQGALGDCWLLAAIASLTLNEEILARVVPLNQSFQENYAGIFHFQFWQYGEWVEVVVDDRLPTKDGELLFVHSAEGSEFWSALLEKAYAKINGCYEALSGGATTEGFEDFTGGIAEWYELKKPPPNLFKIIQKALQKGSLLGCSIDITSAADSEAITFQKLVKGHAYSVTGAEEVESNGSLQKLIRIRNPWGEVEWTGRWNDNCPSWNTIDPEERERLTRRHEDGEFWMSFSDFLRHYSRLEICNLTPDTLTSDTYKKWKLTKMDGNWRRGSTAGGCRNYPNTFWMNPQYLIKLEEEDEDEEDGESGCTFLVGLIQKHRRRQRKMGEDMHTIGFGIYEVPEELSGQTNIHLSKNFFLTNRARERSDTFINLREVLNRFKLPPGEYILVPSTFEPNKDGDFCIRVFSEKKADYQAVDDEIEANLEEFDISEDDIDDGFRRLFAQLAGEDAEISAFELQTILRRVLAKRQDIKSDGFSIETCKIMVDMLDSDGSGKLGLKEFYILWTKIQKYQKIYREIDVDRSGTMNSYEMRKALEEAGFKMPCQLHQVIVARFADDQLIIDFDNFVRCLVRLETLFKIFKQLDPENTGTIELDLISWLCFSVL
T3 sequence (P04632 1-268 partner): T1 sequence (P04632 1-268 partner)
Method in brief: as §1

[3] = Column E, read-out: SH-SY5Y + AMC IC50
[4] = Column D, SH-SY5Y cells, A23187-induced SBDP-150

`Cn1ncc(C(=O)N[C@@H](Cc2ccccc2)C(=O)C(N)=O)c1-c1ccncn1` [Compound 175, (S)—N-(4-amino-3,4-dioxo-1-phenylbutan-2-yl)-1-methyl-5-(pyrimidin-4-yl)-1H-pyrazole-4-carboxamide] was tested, and the IC50 [1, 3] was < 10 µM, the IC50 [2, 4] was > 25 µM and the IC50 (Human Calpain 9/NS1) was < 3 µM. For the same molecule, the IC50 (Human Calpain 1/NS1) was < 3 µM and the IC50 (Human Calpain 2/NS1) was < 3 µM.

For `COc1cccc(-c2nn(C)cc2C(=O)N[C@@H](Cc2ccccc2)C(=O)C(N)=O)c1` [Compound 177, (S)—N-(4-amino-3,4-dioxo-1-phenylbutan-2-yl)-3-(3-methoxyphenyl)-1-methyl-1H-pyrazole-4-carboxamide], the IC50 [1, 3] was < 10 µM, the IC50 [2, 4] was 10 to 25 µM and the IC50 (Human Calpain 9/NS1) was < 3 µM. The IC50 (Human Calpain 1/NS1) was < 3 µM and the IC50 (Human Calpain 2/NS1) was < 3 µM.

In the case of `Cn1cc(C(=O)N[C@@H](Cc2ccccc2)C(=O)C(N)=O)c(-c2cccc(F)c2)n1` [Compound 178, (S)—N-(4-amino-3,4-dioxo-1-phenylbutan-2-yl)-3-(3-fluorophenyl)-1-methyl-1H-pyrazole-4-carboxamide], the IC50 [1, 3] is reported as < 10 µM, the IC50 [2, 4] is reported as < 10 µM and the IC50 (Human Calpain 9/NS1) is reported as < 3 µM. The IC50 (Human Calpain 1/NS1) was < 3 µM and the IC50 (Human Calpain 2/NS1) was < 3 µM.

With `Cn1cc(C(=O)N[C@@H](Cc2ccccc2)C(=O)C(N)=O)c(-c2ccc(F)cc2)n1` [Compound 179, (S)—N-(4-amino-3,4-dioxo-1-phenylbutan-2-yl)-3-(4-fluorophenyl)-1-methyl-1H-pyrazole-4-carboxamide] the IC50 [1, 3] was > 25 µM, the IC50 [2, 4] was 10 to 25 µM and the IC50 (Human Calpain 9/NS1) was < 3 µM. The IC50 (Human Calpain 1/NS1) was < 3 µM and the IC50 (Human Calpain 2/NS1) was < 3 µM.

`CC(C)c1cccc(-c2nn(C)cc2C(=O)N[C@@H](Cc2ccccc2)C(=O)C(N)=O)c1` [Compound 180, (S)—N-(4-amino-3,4-dioxo-1-phenylbutan-2-yl)-3-(3-isopropylphenyl)-1-methyl-1H-pyrazole-4-carboxamide] was tested, and the IC50 [1, 3] was 10 to 25 µM, the IC50 [2, 4] was < 10 µM and the IC50 (Human Calpain 9/NS1) was < 3 µM. The IC50 (Human Calpain 1/NS1) was < 3 µM and the IC50 (Human Calpain 2/NS1) was < 3 µM.

In the case of `Cn1cc(C(=O)N[C@@H](Cc2ccccc2)C(=O)C(N)=O)c(-c2ccccc2F)n1` [Compound 181, (S)—N-(4-amino-3,4-dioxo-1-phenylbutan-2-yl)-3-(2-fluorophenyl)-1-methyl-1H-pyrazole-4-carboxamide], the IC50 [1, 3] is reported as < 10 µM, the IC50 [2, 4] is reported as < 10 µM and the IC50 (Human Calpain 9/NS1) is reported as < 3 µM. For the same molecule, the IC50 (Human Calpain 1/NS1) was < 3 µM and the IC50 (Human Calpain 2/NS1) was < 3 µM.

In the case of `CCc1cccc(-c2nn(C)cc2C(=O)N[C@@H](Cc2ccccc2)C(=O)C(N)=O)c1` [Compound 182, (S)—N-(4-amino-3,4-dioxo-1-phenylbutan-2-yl)-3-(3-ethylphenyl)-1-methyl-1H-pyrazole-4-carboxamide], the IC50 [1, 3] is reported as < 10 µM, the IC50 [2, 4] is reported as 10 to 25 µM and the IC50 (Human Calpain 9/NS1) is reported as < 3 µM. The IC50 (Human Calpain 1/NS1) was < 3 µM and the IC50 (Human Calpain 2/NS1) was < 3 µM.

`Cn1cc(C(=O)N[C@@H](Cc2ccccc2)C(=O)C(N)=O)c(-c2cccc(C(F)(F)F)c2)n1` [Compound 183, (S)—N-(4-amino-3,4-dioxo-1-phenylbutan-2-yl)-1-methyl-3-(3-(trifluoromethyl)phenyl)-1H-pyrazole-4-carboxamide] was tested, and the IC50 [1, 3] was 10 to 25 µM, the IC50 [2, 4] was < 10 µM and the IC50 (Human Calpain 9/NS1) was < 3 µM. The IC50 (Human Calpain 1/NS1) was < 3 µM and the IC50 (Human Calpain 2/NS1) was < 3 µM.

`Cn1cc(C(=O)N[C@@H](Cc2ccccc2)C(=O)C(N)=O)c(-c2cccc(C#N)c2)n1` [Compound 185, (S)—N-(4-amino-3,4-dioxo-1-phenylbutan-2-yl)-3-(3-cyanophenyl)-1-methyl-1H-pyrazole-4-carboxamide] was tested, and the IC50 [1, 3] was > 25 µM, the IC50 [2, 4] was > 25 µM and the IC50 (Human Calpain 9/NS1) was 3 to 10 µM. For the same molecule, the IC50 (Human Calpain 1/NS1) was > 10 µM and the IC50 (Human Calpain 2/NS1) was 3 to 10 µM.

With `Cn1cc(C(=O)N[C@@H](Cc2ccccc2)C(=O)C(N)=O)c(-c2cccc(C3CC3)c2)n1` [Compound 186, (S)—N-(4-amino-3,4-dioxo-1-phenylbutan-2-yl)-3-(3-cyclopropylphenyl)-1-methyl-1H-pyrazole-4-carboxamide] the IC50 [1, 3] was > 25 µM, the IC50 [2, 4] was > 25 µM and the IC50 (Human Calpain 9/NS1) was 3 to 10 µM. It also gave an IC50 (Human Calpain 1/NS1) of 3 to 10 µM and an IC50 (Human Calpain 2/NS1) of 3 to 10 µM.

With `Cn1cc(C(=O)N[C@@H](Cc2ccccc2)C(=O)C(N)=O)c(-c2cccc(Cl)c2)n1` [Compound 187, (S)—N-(4-amino-3,4-dioxo-1-phenylbutan-2-yl)-3-(3-chlorophenyl)-1-methyl-1H-pyrazole-4-carboxamide] the IC50 [1, 3] was > 25 µM, the IC50 [2, 4] was 10 to 25 µM and the IC50 (Human Calpain 9/NS1) was < 3 µM. For the same molecule, the IC50 (Human Calpain 1/NS1) was < 3 µM and the IC50 (Human Calpain 2/NS1) was < 3 µM.

In the case of `Cn1cc(C(=O)N[C@@H](Cc2ccccc2)C(=O)C(N)=O)c(-c2cccnc2)n1` [Compound 188, (S)—N-(4-amino-3,4-dioxo-1-phenylbutan-2-yl)-1-methyl-3-(pyridin-3-yl)-1H-pyrazole-4-carboxamide], the IC50 [1, 3] is reported as > 25 µM, the IC50 [2, 4] is reported as 10 to 25 µM and the IC50 (Human Calpain 9/NS1) is reported as < 3 µM. The IC50 (Human Calpain 1/NS1) was < 3 µM and the IC50 (Human Calpain 2/NS1) was < 3 µM.

`Cn1cc(C(=O)NC(Cc2ccccc2)C(=O)C(N)=O)c(-c2cccc(C(F)(F)F)n2)n1` (stereo not shown) [Compound 198, N-(4-amino-3,4-dioxo-1-phenylbutan-2-yl)-1-methyl-3-(6-(trifluoromethyl)pyridin-2-yl)-1H-pyrazole-4-carboxamide] was tested, and the IC50 ([1]; read-out: SH-SY5Y + AMC IC50, Column E) was > 25 µM, the IC50 ([2]; SH-SY5Y) was > 25 µM and the IC50 (Human Calpain 9/NS1) was < 3 µM. The IC50 (Human Calpain 1/NS1) was < 3 µM and the IC50 (Human Calpain 2/NS1) was < 3 µM.

With `NC(=O)C(=O)[C@H](Cc1ccccc1)NC(=O)c1cncn1-c1ccc(-c2ccccc2)nn1` [Compound 200, (S)—N-(4-amino-3,4-dioxo-1-phenylbutan-2-yl)-1-(6-phenylpyridazin-3-yl)-1H-imidazole-5-carboxamide] the IC50 [1, 3] was > 25 µM, the IC50 [2, 4] was 10 to 25 µM and the IC50 (Human Calpain 9/NS1) was < 3 µM. The IC50 (Human Calpain 1/NS1) was < 3 µM and the IC50 (Human Calpain 2/NS1) was < 3 µM.
